# Assay results taken from patent publication US9289421B2, “Methods and compositions for reducing serum levels of immunoglobulin E (IgE)” (priority 2011, dated 2016).
# “Also recorded” adds a separate entry of the source.
# Experiments:
# [1] = system: serum levels of total IgE; assay: Total serum IgE by ELISA, OVA/ALUM sensitization and boost in BALB/c mice; assay type: in vivo; settings: for IgE levels: THC- or LPI-pretreated B/c mice, OVA/Alum
# Description: (§1) In in vivo IgE-induction models using OVA/Alum or KLH/Ribi, the role of GPR55, in cannabinoid effects on antibody production has been investigated. BALB/c (B/c), C57BL/6 (B6), or B6 CB2 deficient (CB2^−/−) mice were pretreated with THC or L-α-lysophosphatidylinositol (LPI) prior to injections with OVA/Alum or KLH/Ribi, followed by boosting with same antigens. The mice were then bled on various days after boosting and total serum IgE was determined.
# Mice were pretreated with SR2/Gp1a, Gp1a, or not pretreated, and 18 hrs later were sensitized with OVA/ALUM followed by a boost with same antigen. The sera were collected 6 days after the antigen boost injection and ELISAs were performed for IgE. Data represent sera from 4-8 mice/group+/−SEM. *=p≦0.05 from Normal; #=p≦0.05 from OVA/ALUM or SR2/OVA/ALUM.
# [2] = system: serum levels of total IgE; assay: Total serum IgE by ELISA, OVA/ALUM sensitization and boost in C57BL/6 and CB2-/- mice; assay type: in vivo, C57BL/6 (B6) and CB2-/- mice; settings: for serum levels of total IgE: THC pretreatment
# Description: FIG. 4 is a graph illustrating that serum levels of total IgE were increased with THC pretreatment over C57BL/6 (B6) mice; CB2 deficient mice (CB2^−/−) over B6; and THC pretreatment CB2^−/− over B6 and THC/B6. SR141716A (SR1; CB1 antagonist) pretreatment of CB2^−/− had little effect on total IgE levels. The mice were treated OVA/ALUM following a boost of same antigen. The sera were collected at Day 5-6 after the boost and ELISAs were performed. Data represent serum from individual mice (4-9 mice/group+/−SEM). *=p≦0.05 from Normal; #=p≦0.05 from OVA/ALUM; ##=p<0.05 from THC/OVA/ALUM
# as §1
# total serum IgE [3] = assay: Total serum IgE, KLH/Ribi IgE-induction model in BALB/c mice; assay type: in vivo; settings: THC-treated B/c mice
# Description: as §1
# total serum IgE [4] = assay: Total serum IgE, KLH/RIBI IgE-induction model in B6 and CB2-/- mice; assay type: in vivo, C57BL/6 (B6) and CB2-/- mice; settings: compared with OVA/ALUM
# Description: as §1
molecule,measurement,setting,value
"Cc1ccc2c(c1)Cc1c(C(=O)NN3CCCCC3)nn(-c3ccc(Cl)cc3Cl)c1-2 [Gp1a, N-(Piperidin-1-yl)-1-(2,4-dichlorophenyl)-1,4-dihydro-6-methylindeno[1,2-c]pyrazole-3-carboxamide]",serum levels of total IgE,"[1]; BALB/c mice, pretreated 18 hrs before OVA/ALUM, sera 6 days after boost",attenuates; also recorded: caused a decrease in IgE
L-α-lysophosphatidylinositol [LPI],IgE levels,[1],enhanced
Cc1c(C(=O)NN2CCCCC2)nn(-c2ccc(Cl)cc2Cl)c1-c1ccc(Cl)cc1 [SR141716A],IgE response,"[2]; B6 and CB2-/- mice, CB1 antagonist given prior to THC dosing",only slightly elevated
same,total IgE levels,"[2]; CB2-/- mice, SR1 pretreatment, OVA/ALUM",little effect
"CCCCCc1cc(O)c2c(c1)OC(C)(C)[C@@H]1CCC(C)=C[C@@H]21 [THC, Δ^9-tetrahydrocannabinol]",IgE levels,[1],elevated
same,serum levels of total IgE,"[2]; C57BL/6 (B6) mice, OVA/ALUM, sera Day 5-6 after boost",increased
same,serum levels of total IgE,"[2]; CB2-/- mice, OVA/ALUM, vs B6 and THC/B6",increased; also recorded: augmented this effect
same,IgE levels,total serum IgE [3],elevated
same,IgE levels,total serum IgE [4],increased IgE levels greater than OVA/ALUM
"Cc1ccc(Cn2nc(C(=O)N[C@@H]3C(C)(C)[C@@H]4CC[C@@]3(C)C4)cc2-c2ccc(Cl)c(C)c2)cc1 [SR144528, 5-(4-chloro-3-methylphenyl)-1-[(4-methylphenyl)methyl]-N-[(1S,2S,4R)-1,3,3-trimethylbicyclo[2.2.1]hept-2-yl]-1H-pyrazole-3-carboxamide]",effect on the Gp1a attenuation of serum total IgE,"[1]; BALB/c mice, co-treatment with Gp1a (SR2/Gp1a), OVA/ALUM",reversed; also recorded: reverses the Gp1a effect
